The values below come from US20240066045A1, “SEMICARBAZONE-BASED SAPONIN CONJUGATE” (priority 2020, published 2024).

Where two headings read alike, the source gives them in different places.

One data set concerns apoB RNA in liver tissue. As to the kind of experiment: In vivo efficacy: apoB RNA in liver tissue (qRT-PCR). Also noted: species or system C57BL/6J mice. The conditions noted are these: for reduction of liver apoB RNA compared to vehicle: study A. On the procedure: (§1) In Vivo Tolerability and Efficacy of Trivalent GalNAc-Conjugates in a C57BL/6J Model • Dose administration and in-life phase. Per group, 8 C57BL/6J male mice for treatment groups (in study A, 14 mice in vehicle control group), approximately 6-7 weeks at arrival and 8-9 weeks at dosing, were dosed. The compounds, formulated in PBS or PBS alone (vehicle) according to Table A5 and Table A6, were dosed at 5 ml/kg in the tail vain (intravenously, iv), with dose volumes corresponding to the individual bodyweights. Where applicable, trivalent (GalNAc)3-SO1861 (EMCH) was co-administered at 5 ml/kg in the tail vain (iv) right after the trivalent GalNAc-ApoB conjugate. Animals were weighed weekly and clinical observations were performed 2-3 times daily within the first 48 hrs, and at least once daily thereafter until study end. • Sampling of serum, liver, and kidney tissue. […] At the relevant inter-study post-dose timepoints, 3 animals per timepoint per treatment group (6 animals in the vehicle control group in study A) were sacrificed to collect terminal bleeds and collect relevant organs, such as liver and kidney tissues for further analyses. at end of study, the remaining 2 animals (4 in the control group in study A) per group were sacrificed. One half of the liver and one kidney was frozen and used for tissue RNA analysis.
The mRNA was isolated from frozen liver tissue using TRizol® Reagent (Thermo Scientific) according to the manufacturer's instruction. Conversion into cDNA was performed using iScript™ cDNA Synthesis Kit (BioRad). ApoB expression levels and levels of specific liver housekeeping genes were determined using quantitative real-time PCR assays (qRT-PCR) using iTaq™ Universal SYBR® Green Supermix (BioRad) and the Light Cycler 480 (Roche Diagnostics, Rotkreuz, Switzerland) with specific DNA primers, listed in Table A4 (study A) and Table A7 (study B), respectively. Analysis was done by the ΔCt method to determine ApoB expression relative to 2 liver-specific housekeeping control mRNAs. Each analysis reaction was performed in triplicate.
For orientation: Quantitative PCR measures a nucleic acid by following its amplification.

Data set [1] deals with serum LDL-cholesterol (LDL-C). As to the kind of experiment: In vivo efficacy: serum LDL-cholesterol. The arrangement: species or system C57BL/6J mice. On the procedure: as §1
LDL-cholesterol was measured in mouse serum, using an LDL-cholesterol specific two-step AU480 assay kit, respectively, from Beckman Coulter, with a photometric measurement according to the manufacturer's instructions.

The next data set has as its system apoB protein in serum. As to the kind of experiment: In vivo efficacy: serum apoB protein (ELISA). Also noted: species or system C57BL/6J mice. The conditions noted are these: study B; 2 mg/kg; 72 hrs post-dose. Here is the method: as §1, with “[…] […]” for “The compounds, formulated in PBS or PBS alone (vehicle) according to Table A5 and Table A6, were dosed at 5 ml/kg in the tail vain (intravenously, iv), with dose volumes corresponding to the individual bodyweights. Where applicable, trivalent (GalNAc)3-SO1861 (EMCH) was co-administered at 5 ml/kg in the tail vain (iv) right after the trivalent GalNAc-ApoB conjugate.”
ApoB protein levels in mouse serum was determined using an ApoB ELISA (ab230932, Abcam, Cambridge, UK), according to the manufacturer's instruction.
Background: ELISA stands for enzyme-linked immunosorbent assay.

The nature of data set [2]: In vivo tolerability: clinical observations, body weight, serum ALT. Also noted: species or system C57BL/6J mice. Conditions: study A; doses and dose regimens of Table A5, iv. Here is the method: In Vivo Tolerability and Efficacy of Trivalent GalNAc-Conjugates in a C57BL/6J Model • Dose administration and in-life phase. Per group, 8 C57BL/6J male mice for treatment groups (in study A, 14 mice in vehicle control group), approximately 6-7 weeks at arrival and 8-9 weeks at dosing, were dosed. The compounds, formulated in PBS or PBS alone (vehicle) according to Table A5 and Table A6, were dosed at 5 ml/kg in the tail vain (intravenously, iv), with dose volumes corresponding to the individual bodyweights. Where applicable, trivalent (GalNAc)3-SO1861 (EMCH) was co-administered at 5 ml/kg in the tail vain (iv) right after the trivalent GalNAc-ApoB conjugate. Animals were weighed weekly and clinical observations were performed 2-3 times daily within the first 48 hrs, and at least once daily thereafter until study end. • Sampling of serum, liver, and kidney tissue. […]
Serum alanine transaminase (ALT) levels was measured using an AU480 assay kit from Beckman Coulter (photometric measurements), according to the manufacturer's instructions.

The test system of data set [3] is apoB RNA in primary human hepatocytes. In words: apoB RNA expression analysis (qRT-PCR) after 72 hr treatment. It counts as cell-based. The conditions noted are these: read-out: IC50 apoB RNA levels. On the procedure:
RNA from cells was isolated using TRI Reagent® Solution (Thermo Scientific) according to the manufacturer's instruction. Conversion into cDNA was performed using iScript™ cDNA Synthesis Kit (BioRad) using standard protocols. ApoB expression levels and levels of specific hepatocyte housekeeping genes were determined using quantitative real-time PCR assays (qRT-PCR) using iTaq™ Universal SYBR® Green Supermix (BioRad) and the Light Cycler 480 (Roche Diagnostics, Rotkreuz, Switzerland) with specific DNA primers, listed in Table A4. Analysis was done by the ΔCt method to determine ApoB expression relative to 2 hepatocyte-specific housekeeping control mRNAs. Each analysis reaction was performed in triplicate.
Covalent binding of the saponin to the GalNAc/oligonucleotide conjugate via a semicarbazone bond thus results in increased efficacy when relative apoB RNA levels are considered and compared with levels measured in cells which were contacted with a conjugate comprising saponin linked via a hydrazone bond to the GalNAc/oligonucleotide conjugate. Without wishing to be bound by any theory, improved efficacy of the release of free saponin from the conjugate, when the conjugate is transferred into the endosome, is at the basis for the improved potency of the oligonucleotide, as obtained with the conjugate comprising saponin bound via semicarbazone. […]

The term IC50 denotes the point on the concentration scale where inhibition reaches its midpoint. With “5′-GCattggtatTCA-3′ (GCATTGGTATTCA; listed as DNA, chemistry not fully specified) [ApoB #02 BNA]”, the “reduction of liver apoB RNA compared to vehicle” value in the data set with apoB RNA in liver tissue (0.1 mg/kg iv, 24 hrs) is listed as “not noticeably reduced”; in the data set on apoB RNA in liver tissue (1 mg/kg iv, 24 hrs), roughly 15%; with apoB RNA in liver tissue (2 mg/kg iv, 24 hrs) it was roughly 21%; in the data set with apoB RNA in liver tissue (2 mg/kg iv, 72 hrs), 39%; in the data set with apoB RNA in liver tissue (2 mg/kg iv, 336 hrs) it was 30%. For the same substance, the “liver apoB RNA levels, % of vehicle control” value in the data set with apoB RNA in liver tissue (study B, 2 mg/kg, 72 hrs) turned out to be 53%. The “reduction of serum LDL-C compared to vehicle” value in data set [1] (study A, 2 mg/kg, 72 hrs) is “ca. 50%”; in data set [1] (study A, 2 mg/kg, 336 hrs), “ca. 40%”. Also, the “serum LDL-C levels compared to vehicle” value in data set [1] (study A, 0.1, 1, or 2 mg/kg, 24 hrs) was “not noticeably reduced”. Moreover, the “serum LDL-C” value in data set [1] (study B, 2 mg/kg, 72 hrs post-dose) came out at 2 mg/dL. Besides, the “serum apoB protein” value in the data set with apoB protein in serum came out at 57 µg/mL. In addition, the “tolerability (clinical observations)” value in data set [2] is on record as “well tolerated”. Moreover, the IC50 in data set [3] (relative ApoB #02 BNA concentration, no transfection agent (FIG. 19A)) amounted to 400 nM; in data set [3] (transfection with RNAi-MAX), 8 nM.
